Structures can show the parent of a compound that is named as a salt.
Tested on: Human mast cells (CHMC)
Test: LD Tryptase release assay in CHMC (mast cell activation induced by FcγR cross-linking)
Assay type: cell-based
Details: Homo sapiens, Mast cell, anti-IgG stimulation, activity of tryptase released upon degranulation
In short: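 Mast cells derived from CD38-negative progenitors were preincubated 1 h at 37 °C with compound in HEPES-buffered saline (pH 7.4, 0.1% BSA, compound diluted in buffer with 2% MeOH/1% DMSO). Cells were then stimulated 60 min with anti-human IgG (final 1 μg/mL). Released tryptase was measured on Z-Ala-Lys-Arg-AMC (30 min, room temperature, 355/460 nm) to give the IC50.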

`Cc1ccc(Nc2ncc(F)c(Nc3ccc4c(n3)NC(=O)C(C)(C)O4)n2)cn1` [Compound 76, N4-(2,2-dimethyl-3,4-dihydro-3-oxo-2H-pyrido[3,2-b][1,4]oxazin-6-yl)-5-fluoro-N2-[6-methylpyridin-3-yl]-2,4-pyrimidinediamine] and `CN(C)c1ccc(Nc2ncc(F)c(Nc3ccc4c(n3)NC(=O)C(C)(C)O4)n2)cn1` [Compound 147, N4-(2,2-dimethyl-3,4-dihydro-3-oxo-2H-pyrido[3,2-b][1,4]oxazin-6-yl)-5-fluoro-N2-[6-(dimethylamino)pyridin-3-yl]-2,4-pyrimidinediamine] fall in the same range of IC50: 100 to 500 nM for the first, 100 to 500 nM for the second.

First: CN1CCN(c2ccc(Nc3ncc(F)c(Nc4ccc5c(n4)NC(=O)CO5)n3)cn2)CC1 [Compound 19, N4-(3,4-dihydro-3-oxo-2H-pyrido[3,2-b][1,4]oxazin-6-yl)-5-fluoro-N2-[6-(4-methylpiperazin-1-yl)pyridin-3-yl]-2,4-pyrimidinediamine]
Second: O=C1COc2ccc(Nc3nc(Nc4ccc(N5CCOCC5)c(F)c4)ncc3F)nc2N1 [Compound 34, N4-(3,4-dihydro-3-oxo-2H-pyrido[3,2-b][1,4]oxazin-6-yl)-5-fluoro-N2-[3-fluoro-4-morpholinophenyl]-2,4-pyrimidinediamine]
The IC50 of the first is higher: 1000 to 100000 nM for the first, under 100 nM for the second.

First: CC1(C)Oc2ccc(Nc3nc(Nc4cnc(N5CCOCC5)c(F)c4)ncc3F)nc2NC1=O [Compound 10, N4-(2,2-dimethyl-3,4-dihydro-3-oxo-2H-pyrido[3,2-b][1,4]oxazin-6-yl)-5-fluoro-N2-[5-fluoro-6-morpholinopyridin-3-yl]-2,4-pyrimidinediamine]
Second: CC1(C)Oc2ccc(Nc3nc(Nc4ccc(N5CCOCC5)c(F)c4)ncc3F)nc2NC1=O [Compound 26, N4-(2,2-dimethyl-3,4-dihydro-3-oxo-2H-pyrido[3,2-b][1,4]oxazin-6-yl)-5-fluoro-N2-[3-fluoro-4-morpholinophenyl]-2,4-pyrimidinediamine]
The IC50 of the first is higher: 100 to 500 nM for the first, under 100 nM for the second. The second is the more potent here.

First: C[C@@H]1CN(c2ccc(Nc3ncc(F)c(Nc4ccc5c(n4)NC(=O)CO5)n3)cc2)C[C@H](C)O1 [Compound 35, rac-Cis-N4-(3,4-dihydro-3-oxo-2H-pyrido[3,2-b][1,4]oxazin-6-yl)-5-fluoro-N2-[4-(2,6-dimethylmorpholino)phenyl]-2,4-pyrimidinediamine]
Second: C[C@@H]1CN(c2ccc(Nc3ncc(F)c(Nc4ccc5c(n4)NC(=O)CO5)n3)cc2)CCO1 [Compound 117, N4-(3,4-dihydro-3-oxo-2H-pyrido[3,2-b][1,4]oxazin-6-yl)-5-fluoro-N2-[4-((2R)-2-methylmorpholino)phenyl]-2,4-pyrimidinediamine]
The IC50 of the first is higher: 100 to 500 nM for the first, under 100 nM for the second. The second is the more potent here.

Compared with `CC1(C)Oc2ccc(Nc3nc(Nc4ccc(N5CCC(F)(F)CC5)c(F)c4)ncc3F)nc2NC1=O` [Compound 30, N4-(2,2-dimethyl-3,4-dihydro-3-oxo-2H-pyrido[3,2-b][1,4]oxazin-6-yl)-5-fluoro-N2-[3-fluoro-4-(4,4-difluoro-1-piperidinyl)phenyl]-2,4-pyrimidinediamine], `CC1(C)Oc2ccc(Nc3nc(Nc4ccc(N5CCC(O)CC5)cc4)ncc3F)nc2NC1=O` [Compound 77, N4-(2,2-dimethyl-3,4-dihydro-3-oxo-2H-pyrido[3,2-b][1,4]oxazin-6-yl)-5-fluoro-N2-[4-(4-hydroxypiperidin-1-yl)phenyl]-2,4-pyrimidinediamine] is lower in IC50: 1000 to 100000 nM for the first, under 100 nM for the second. The second is the more potent here.

Compared with `CC(C)OC1CCN(c2ccc(Nc3ncc(F)c(Nc4ccc5c(n4)NC(=O)C(C)(C)O5)n3)cc2)CC1` [Compound 86, N4-(2,2-dimethyl-3,4-dihydro-3-oxo-2H-pyrido[3,2-b][1,4]oxazin-6-yl)-5-fluoro-N2-[4-(4-isopropoxypiperidin-1-yl)phenyl]-2,4-pyrimidinediamine], `COC1CCN(c2ccc(Nc3ncc(F)c(Nc4ccc5c(n4)NC(=O)C(C)(C)O5)n3)cc2)CC1` [Compound 152, N4-(2,2-dimethyl-3,4-dihydro-3-oxo-2H-pyrido[3,2-b][1,4]oxazin-6-yl)-5-fluoro-N2-[4-(4-methoxypiperidin-1-yl)phenyl]-2,4-pyrimidinediamine] is lower in IC50: 1000 to 100000 nM for the first, under 100 nM for the second.

First: CC1(C)Oc2ccc(Nc3nc(Nc4ccc(N5C[C@@H]6C[C@H]5CO6)cc4)ncc3F)nc2NC1=O [Compound 38, N4-(2,2-dimethyl-3,4-dihydro-3-oxo-2H-pyrido[3,2-b][1,4]oxazin-6-yl)-5-fluoro-N2-[4-((1S,4S)-5-oxa-2-aza-bicyclo[2.2.1]heptan-2-yl)phenyl]-2,4-pyrimidinediamine]
Second: C[C@@H]1CN(c2ccc(Nc3ncc(F)c(Nc4ccc5c(n4)NC(=O)C(C)(C)O5)n3)cc2)C[C@H](C)O1 [Compound 36, rac-Cis-N4-(2,2-dimethyl-3,4-dihydro-3-oxo-2H-pyrido[3,2-b][1,4]oxazin-6-yl)-5-fluoro-N2-[4-(2,6-dimethylmorpholino)phenyl]-2,4-pyrimidinediamine]
The IC50 of the first is lower: under 100 nM for the first, 100 to 500 nM for the second. The first is the more potent here.

Compared with `CCOCC1CN(c2ccc(Nc3ncc(F)c(Nc4ccc5c(n4)NC(=O)CO5)n3)cc2)CCO1` (stereo in doubt) [Compound 41, N4-(3,4-dihydro-3-oxo-2H-pyrido[3,2-b][1,4]oxazin-6-yl)-5-fluoro-N2-[4-(((2S)-2-ethoxymethyl)morpholino)phenyl]-2,4-pyrimidinediamine], `O=C1COc2ccc(Nc3nc(Nc4ccc(N5CCO[C@@H](CO)C5)cc4)ncc3F)nc2N1` [Compound 127, N4-(3,4-dihydro-3-oxo-2H-pyrido[3,2-b][1,4]oxazin-6-yl)-5-fluoro-N2-[4-((2-hydroxymethyl)morpholino)phenyl]-2,4-pyrimidinediamine] is lower in IC50: 100 to 500 nM for the first, under 100 nM for the second. The second is the more potent here.

`CCOCC1CN(c2ccc(Nc3ncc(F)c(Nc4ccc5c(n4)NC(=O)C(C)(C)O5)n3)cc2)CCO1` (stereo in doubt) [Compound 42, N4-(2,2-dimethyl-3,4-dihydro-3-oxo-2H-pyrido[3,2-b][1,4]oxazin-6-yl)-5-fluoro-N2-[4-(((2S)-2-ethoxymethyl)morpholino)phenyl]-2,4-pyrimidinediamine] and `CN(C)C[C@@H]1CN(c2ccc(Nc3ncc(F)c(Nc4ccc5c(n4)NC(=O)C(C)(C)O5)n3)cc2)CCO1` [Compound 122] fall in the same range of IC50: 100 to 500 nM for the first, 100 to 500 nM for the second.

First: CCO[C@H]1CCN(c2ccc(Nc3ncc(F)c(Nc4ccc5c(n4)NC(=O)C(C)(C)O5)n3)cn2)C1 [Compound 57, N4-(2,2-dimethyl-3,4-dihydro-3-oxo-2H-pyrido[3,2-b][1,4]oxazin-6-yl)-5-fluoro-N2-1-2,4-pyrimidinediamine]
Second: CC1(C)Oc2ccc(Nc3nc(Nc4ccc(N5CCO[C@@H](CF)C5)nc4)ncc3F)nc2NC1=O [Compound 145, N4-(2,2-dimethyl-3,4-dihydro-3-oxo-2H-pyrido[3,2-b][1,4]oxazin-6-yl)-5-fluoro-N2-[6-((2R)-2-(fluoromethyl)morpholino)pyridin-3-yl]-2,4-pyrimidinediamine]
The IC50 of the first is higher: 100 to 500 nM for the first, under 100 nM for the second.

First: CN(C[C@@H]1CCCO1)c1ccc(Nc2ncc(F)c(Nc3ccc4c(n3)NC(=O)CO4)n2)cn1 [Compound 108, N4-(3,4-dihydro-3-oxo-2H-pyrido[3,2-b][1,4]oxazin-6-yl)-5-fluoro-N2-[6-(((S)-methyl(tetrahydrofuran-2-yl)methyl)amino)pyridin-3-yl]-2,4-pyrimidinediamine]
Second: CN(C)C[C@@H]1CN(c2ccc(Nc3ncc(F)c(Nc4ccc5c(n4)NC(=O)CO5)n3)cc2)CCO1 (racemic) [Compound 121, rac-N4-(3,4-dihydro-3-oxo-2H-pyrido[3,2-b][1,4]oxazin-6-yl)-N2-[4-((2-dimethylaminomethyl)morpholino)phenyl]-5-fluoro-2,4-pyrimidinediamine]
The IC50 of the first is higher: 100 to 500 nM for the first, under 100 nM for the second. The second is the more potent here.

First: CC1(C)CN(c2ncc(Nc3ncc(F)c(Nc4ccc5c(n4)NC(=O)C(C)(C)O5)n3)cc2F)CCO1 [Compound 15, N4-(2,2-dimethyl-3,4-dihydro-3-oxo-2H-pyrido[3,2-b][1,4]oxazin-6-yl)-5-fluoro-N2-[5-fluoro-6-(2,2-dimethylmorpholino)pyridin-3-yl]-2,4-pyrimidinediamine]
Second: CC1(C)CN(c2ncc(Nc3ncc(F)c(Nc4ccc5c(n4)NC(=O)CO5)n3)cc2F)CCO1 [Compound 17, N4-(3,4-dihydro-3-oxo-2H-pyrido[3,2-b][1,4]oxazin-6-yl)-5-fluoro-N2-[5-fluoro-6-(2,2-dimethylmorpholino)pyridin-3-yl]-2,4-pyrimidinediamine]
The IC50 of the first is higher: 1000 to 100000 nM for the first, 100 to 500 nM for the second. The second is the more potent here.

First: O=C1COc2ccc(Nc3nc(Nc4ccc(C5CCOCC5)cc4)ncc3F)nc2N1 [Compound 46, N4-(3,4-dihydro-3-oxo-2H-pyrido[3,2-b][1,4]oxazin-6-yl)-5-fluoro-N2-[4-tetrahydropyranophenyl]-2,4-pyrimidinediamine]
Second: CC1(C)Oc2ccc(Nc3nc(Nc4ccc(N5CCC(N6CCOCC6)C5)nc4)ncc3F)nc2NC1=O (stereo not shown) [Compound 67, N4-(2,2-dimethyl-3,4-dihydro-3-oxo-2H-pyrido[3,2-b][1,4]oxazin-6-yl)-5-fluoro-N2-[6-(3-morpholinopyrrolidin-1-yl)pyridin-3-yl]-2,4-pyrimidinediamine]
The IC50 of the first is lower: under 100 nM for the first, 100 to 500 nM for the second.

Same assay, conditions: anti-IgG stimulation, activity of tryptase released upon degranulation

`CC1(C)CN(c2ccc(Nc3ncc(F)c(Nc4ccc5c(n4)N(COP(=O)(O)O)C(=O)CO5)n3)cc2)CCO1` [Compound 129, N4-(3,4-dihydro-4-[(dihydrogenphosphonoxy)methyl]-3-oxo-2H-pyrido[3,2-b][1,4]oxazin-6-yl)-5-fluoro-N2-[4-(2,2-dimethylmorpholino)phenyl]-2,4-pyrimidinediamine disodium salt] and `CC1(C)Oc2ccc(Nc3nc(Nc4ccc(N5CCOCC5)nc4)ncc3F)nc2N(COP(=O)(O)O)C1=O` [Compound 4, N4-(2,2-dimethyl-3,4-dihydro-4-[(dihydrogenphosphonoxy)methyl]-3-oxo-2H-pyrido[3,2-b][1,4]oxazin-6-yl)-5-fluoro-N2-(6-morpholinopyridin-3-yl)-2,4-pyrimidinediamine disodium salt] fall in the same range of IC50: 1000 to 100000 nM for the first, 1000 to 100000 nM for the second.
